{"source": "patent US20120277272A1", "about": "“Ethanamine Compounds and Methods of Using the Same” (priority 2008, published 2012)", "key": {"[1]": {"target": "T1, NMDA receptor", "T1 construct": "Mean Ki; Mean Maximum effect", "experiment": "MK801 binding inhibition (NMDA receptor antagonist activity in vitro)", "conditions": "inhibition of MK801 binding to the NMDA receptor", "description": "(§1) NMDA receptor antagonist activity can be measured in vitro by assaying a compound's ability to inhibit binding of the receptor antagonist 10,11-dihydro-5-methyl-5H-dibenzo[a,d]-cyclohepten-5,10-imine (MK801) to the receptor. The method is described by Foster and Wong, Br. J. Pharmacol. 91, 403-409 (1987).\nas §1, with “was” for “can be”, “10,11-dihdro-5-methyl-5H-dibenzo[a,d]-cyclohepten-5,10-imine” for “10,11-dihydro-5-methyl-5H-dibenzo[a,d]-cyclohepten-5,10-imine”"}, "[2]": {"target": "Human NR1/NR2A channel (Homo sapiens, UniProt Q05586+Q12879)", "sequence (Q12879 23-1464, other chains not shown)": "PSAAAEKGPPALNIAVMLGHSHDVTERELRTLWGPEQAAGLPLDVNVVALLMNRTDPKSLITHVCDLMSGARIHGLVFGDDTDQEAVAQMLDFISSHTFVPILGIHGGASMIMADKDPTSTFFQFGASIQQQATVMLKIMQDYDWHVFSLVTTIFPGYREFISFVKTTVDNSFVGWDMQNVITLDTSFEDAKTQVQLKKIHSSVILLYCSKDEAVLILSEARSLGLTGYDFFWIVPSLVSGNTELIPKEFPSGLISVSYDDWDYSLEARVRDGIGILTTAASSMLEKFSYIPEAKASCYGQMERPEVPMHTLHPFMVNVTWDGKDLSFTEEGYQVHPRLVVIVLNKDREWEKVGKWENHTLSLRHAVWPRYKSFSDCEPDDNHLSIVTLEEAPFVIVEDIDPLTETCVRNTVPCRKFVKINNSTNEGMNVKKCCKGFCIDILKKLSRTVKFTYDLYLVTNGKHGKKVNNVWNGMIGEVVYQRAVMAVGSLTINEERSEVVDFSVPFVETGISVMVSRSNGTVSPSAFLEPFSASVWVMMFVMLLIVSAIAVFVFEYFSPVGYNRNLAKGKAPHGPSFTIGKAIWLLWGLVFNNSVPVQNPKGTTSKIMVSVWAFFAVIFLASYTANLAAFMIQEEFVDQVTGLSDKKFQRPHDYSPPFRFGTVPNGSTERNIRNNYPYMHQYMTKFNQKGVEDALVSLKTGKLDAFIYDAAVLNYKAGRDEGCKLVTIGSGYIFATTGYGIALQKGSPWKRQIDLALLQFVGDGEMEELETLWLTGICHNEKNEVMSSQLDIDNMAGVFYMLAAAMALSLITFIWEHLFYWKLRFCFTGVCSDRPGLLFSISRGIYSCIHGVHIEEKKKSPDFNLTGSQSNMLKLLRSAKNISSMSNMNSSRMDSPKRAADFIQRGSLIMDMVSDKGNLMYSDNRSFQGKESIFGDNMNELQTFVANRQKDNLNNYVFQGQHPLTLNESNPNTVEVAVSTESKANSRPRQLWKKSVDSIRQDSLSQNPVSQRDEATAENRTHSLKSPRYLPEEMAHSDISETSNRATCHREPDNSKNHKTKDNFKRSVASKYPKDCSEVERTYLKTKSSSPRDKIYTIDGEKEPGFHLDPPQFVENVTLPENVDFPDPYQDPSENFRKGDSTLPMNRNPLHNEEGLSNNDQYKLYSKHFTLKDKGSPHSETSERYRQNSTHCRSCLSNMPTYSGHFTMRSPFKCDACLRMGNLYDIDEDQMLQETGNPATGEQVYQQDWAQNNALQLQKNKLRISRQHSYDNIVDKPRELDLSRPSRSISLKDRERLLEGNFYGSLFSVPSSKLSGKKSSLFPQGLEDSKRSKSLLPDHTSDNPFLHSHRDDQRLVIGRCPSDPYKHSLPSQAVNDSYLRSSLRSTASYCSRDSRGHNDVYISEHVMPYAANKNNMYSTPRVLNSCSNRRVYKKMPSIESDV", "experiment": "Automated patch clamp (QPatch16) block of NR1/NR2A channel currents in CHO-1H8 cells", "assay_type": "cell-based", "description": "Chinese Hamster Ovary (CHO-KI) cells were transfected with Effectene^R reagent following the manufacturer's instructions. Cells were triply transfected with plasmids pTet-Off, pTRE2-pur hNR1, and pGEN IRES Hyg-hNR2A. Transfection was done in medium containing Ham's F12, 10% FBS, 2 mM L-Glutamine, 200 μM ketamine and 2 μg/ml doxycycline. 24 hours post transfection, cells were split 1:10 into medium in which 200 μM ketamine was replaced with 20 μM MK-801. After an additional 24 hours (48 hours post transfection), antibiotic selection was performed as follows: 1 μg/ml puromycin, 500 μg/ml hygromycin, and 500 μg/ml geneticin (G418). After two weeks in the selection medium (with medium changes every 3-5 days), 15-20 clones developed in the flask. These clones were pooled and cultured for one more week. Cells were then clonally plated in two 96-well plates at 1 cell/well by limiting dilution. After three weeks, cells were trypsinized and each original 96-well plate was divided into two; one plate was cultured in the presence of 2 μg/ml doxycycline and the other was cultured for assay without doxycycline. After three days, the assay plates were screened for functional NMDAR expression by stimulating with 50 μM glycine/100 μM glutamate. Two positive clones were expanded and tested for glutamate dose response with glycine fixed at 30 μM. One clone, CHO-1H8 gave robust, dose-dependent response to glutamate and was selected for further characterization.\nFor routine culture, CHO-1H8 cells were maintained in Ham's F-12+2 mM L-Glutamine (PAA, E15-817), 10% FBS (Sigma, F7442), 1 μg/mL puromycin (Invitrogen A1113802), 250 μg/mL hygromycin (Invitrogen 10687010), 250 μg/mL geneticin (Invitrogen 11811-098), 1 μg/mL doxycycline (Sigma D9891), and 300 μM of the NMDA-channel blocker (R)-α-amino-6,7-dimethyl-3-(phosphonomethyl)-2-quinolinepropanoic acid (CAS 170847-87-7, Swahn et al., Bioorg. Med. Chem. Lett. 1996, 1635). Cells to be used in functional assay were grown in same medium as above, but with 1 μg/mL doxycycline replaced by 2 μg/mL tetracycline (Sigma T7660) three days before induction. Growth medium was replaced every 2-3 days, i.e. Monday-Wednesday-Friday. For induction of NMDAR expression, CHO-1H8 cells were cultured without doxycycline or tetracycline (but with CAS 170847-87-7) for 48 hours in medium prepared with Tet System-Approved FBS (BD Biosciences). […]\nIn order to evaluate effects of test compounds as inhibitors of NR1/NR2A channels, the channels were first activated by addition of a NMDAR agonist NMDA (Sigma, M3262) and Glycine (Merck, 3570) to the extracellular bath solution. […] NR1/NR2A currents were recorded for 12 sec after activation with 100 μM NMDA/10 μM Glycine (Icontrol). […]"}, "[3]": {"tested_on": "NMDA receptor", "experiment": "NMDA trapping", "assay_type": "cell-based", "conditions": "Table 4; as described in Mealing et al. 2001", "from_the_text": "Trapping data was generated as described in Mealing et al., J. Pharmacol. Exp. Therapeutics 2001, (297/3), 906-914."}, "[4]": {"conditions": "Table 1, read-out: MK801 Binding IC50"}, "[5]": {"conditions": "Table 4, NR1/NR2A currents, cells clamped at −60 mV, activated with 100 μM NMDA/10 μM Glycine, 0.41-33.33 μM compound, read-out: Mean IC50"}, "[6]": {"conditions": "Table 3, listed as Ex 8, fumarate salt"}}, "note": "Structures can show the parent of a compound that is named as a salt. Where two headings read alike, the source gives them in different places."}
{"compound": "CC(C)(c1ccccn1)[C@H](N)c1ccccc1", "note": "(as salt: HCl) [Example 2, (R)-2-methyl-1-phenyl-2-(pyridin-2-yl)propan-1-amine]", "values": [{"measurement": "melting point", "value": 188, "unit": "°C"}]}
{"compound": "CC(C)(c1ccccn1)[C@@H](N)c1ccccc1", "note": "(as salt: HCl) [Example 3, (S)-2-methyl-1-phenyl-2-(pyridin-2-yl)propan-1-amine]", "values": [{"measurement": "melting point", "value": 188, "unit": "°C"}]}
{"compound": "CC(C)(c1ccccn1)C(N)c1ccccc1", "note": "(racemic) (as salt: hydrochloride) [Example 1, 2-methyl-1-phenyl-2-(pyridin-2-yl)propan-1-amine]", "values": [{"measurement": "melting point", "value": 188, "unit": "°C"}]}
{"compound": "CC(C)(c1ccccn1)C(N)c1ccccc1", "note": "(racemic) [Example 1, 2-methyl-1-phenyl-2-(pyridin-2-yl)propan-1-amine]", "values": [{"measurement": "IC50", "setting": "[1]; [4]", "value": 12, "unit": "µM"}, {"measurement": "Ki", "setting": "[1]; Table 3", "value": 4.9, "unit": "µM"}, {"measurement": "Mean Maximum effect", "setting": "[1]; Table 3", "value": 75, "unit": "%"}, {"measurement": "IC50", "setting": "[1]; Table 3, read-out: Mean IC50", "value": 12, "unit": "µM"}]}
{"compound": "CC(C)(c1ccccn1)C(N)c1cccc(F)c1", "note": "(racemic) [Example 4, 1-(3-fluorophenyl)-2-methyl-2-(pyridin-2-yl)propan-1-amine]", "values": [{"measurement": "IC50", "setting": "[1]; [4]", "value": 3.3, "unit": "µM"}]}
{"compound": "CC(C)(c1ccccn1)C(N)c1cccc(F)c1.O=C(O)/C=C/C(=O)O", "note": "(racemic) [Example 9, 1-(3-Fluorophenyl)-2-methyl-2-(pyridin-2-yl)propan-1-amine fumarate salt, racemate]", "values": [{"measurement": "Ki", "setting": "[1]; Table 3", "value": 1.3, "unit": "µM"}, {"measurement": "Mean Maximum effect", "setting": "[1]; Table 3", "value": 83, "unit": "%"}, {"measurement": "IC50", "setting": "[1]; Table 3, read-out: Mean IC50", "value": 3.2, "unit": "µM"}]}
{"compound": "N[C@@H](Cc1ccccn1)c1ccccc1", "note": "(single isomer, unassigned) [Example 13, dihydrochloride, reference compound]", "values": [{"measurement": "IC50", "setting": "[2]", "value": 6, "unit": "µM"}, {"measurement": "Trapping", "setting": "[3]", "value": 53, "unit": "%"}, {"measurement": "Ki", "setting": "[1]; Table 3", "value": 2.9, "unit": "µM"}, {"measurement": "Mean Maximum effect", "setting": "[1]; Table 3", "value": 89, "unit": "%"}, {"measurement": "IC50", "setting": "[1]; Table 3, read-out: Mean IC50", "value": 6.6, "unit": "µM"}]}
{"compound": "N[C@H](Cc1ccccn1)c1ccccc1", "note": "(single isomer, unassigned) [Example 14, dihydrochloride, reference compound]", "values": [{"measurement": "IC50", "setting": "[2]", "value": 10, "unit": "µM"}]}
{"compound": "CC(C)(c1ccccn1)C(N)c1cccc(F)c1.O=C(O)/C=C/C(=O)O", "note": "(single isomer, unassigned; stereoisomer 1) [Example 10, 1-(3-fluorophenyl)-2-methyl-2-(pyridin-2-yl)propan-1-amine fumarate salt, stereoisomer 1]", "values": [{"measurement": "Ki", "setting": "[1]; Table 3, listed as Ex 10", "value": 15, "unit": "µM"}, {"measurement": "Mean Maximum effect", "setting": "[1]; Table 3, listed as Ex 10", "value": 87, "unit": "%"}, {"measurement": "IC50", "setting": "[1]; Table 3, listed as Ex 10, read-out: Mean IC50", "value": 25, "unit": "µM"}]}
{"compound": "CC(C)(c1ccccn1)C(N)c1cccc(F)c1.O=C(O)/C=C/C(=O)O", "note": "(single isomer, unassigned; stereoisomer 2) [Example 11, 1-(3-fluorophenyl)-2-methyl-2-(pyridin-2-yl)propan-1-amine fumarate salt, stereoisomer 2]", "values": [{"measurement": "Ki", "setting": "[1]; Table 3, listed as Ex 11", "value": 2.5, "unit": "µM"}, {"measurement": "Mean Maximum effect", "setting": "[1]; Table 3, listed as Ex 11", "value": 97, "unit": "%"}, {"measurement": "IC50", "setting": "[1]; Table 3, listed as Ex 11, read-out: Mean IC50", "value": 4.1, "unit": "µM"}]}
{"compound": "CC(C)(c1ccccn1)[C@H](N)c1ccccc1", "note": "[Example 2, (R)-2-methyl-1-phenyl-2-(pyridin-2-yl)propan-1-amine]", "values": [{"measurement": "IC50", "setting": "[2]; [5]", "value": 10, "unit": "µM"}, {"measurement": "IC50", "setting": "[1]; [4]", "value": 6.4, "unit": "µM"}, {"measurement": "Ki", "setting": "[1]; Table 3", "value": "> 7.9", "unit": "µM"}, {"measurement": "Mean Maximum effect", "setting": "[1]; Table 3", "value": 64, "unit": "%"}, {"measurement": "IC50", "setting": "[1]; Table 3, read-out: Mean IC50", "value": "> 25", "unit": "µM"}]}
{"compound": "CC(C)(c1ccccn1)[C@@H](N)c1ccccc1", "note": "[Example 3, (S)-2-methyl-1-phenyl-2-(pyridin-2-yl)propan-1-amine]", "values": [{"measurement": "IC50", "setting": "[2]; [5]", "value": 3, "unit": "µM"}, {"measurement": "Trapping", "setting": "[3]", "value": 39, "unit": "%"}, {"measurement": "IC50", "setting": "[1]; [4]", "value": 35, "unit": "µM"}, {"measurement": "Ki", "setting": "[1]; Table 3, listed as Ex 3", "value": 1.8, "unit": "µM"}, {"measurement": "Mean Maximum effect", "setting": "[1]; Table 3, listed as Ex 3", "value": 76, "unit": "%"}, {"measurement": "IC50", "setting": "[1]; Table 3, listed as Ex 3, read-out: Mean IC50", "value": 5.7, "unit": "µM"}]}
{"compound": "CC(C)(c1ccccn1)[C@H](N)c1cccc(F)c1", "note": "[Example 5, (R)-1-(3-fluorophenyl)-2-methyl-2-(pyridin-2-yl)propan-1-amine]", "values": [{"measurement": "IC50", "setting": "[1]; [4]", "value": 5.5, "unit": "µM"}]}
{"compound": "CC(C)(c1ccccn1)[C@@H](N)c1cccc(F)c1", "note": "[Example 6, (S)-1-(3-fluorophenyl)-2-methyl-2-(pyridin-2-yl)propan-1-amine]", "values": [{"measurement": "IC50", "setting": "[1]; [4]", "value": 25, "unit": "µM"}]}
{"compound": "CC(C)(c1ccccn1)[C@@H](N)c1ccccc1", "note": "[Example 8, (S)-2-methyl-1-phenyl-2-(pyridine-2-yl)propan-1-amine fumarate salt]", "values": [{"measurement": "Ki", "setting": "[1]; [6]", "value": 3.2, "unit": "µM"}, {"measurement": "Mean Maximum effect", "setting": "[1]; [6]", "value": 90, "unit": "%"}, {"measurement": "IC50", "setting": "[1]; Table 3, listed as Ex 8, fumarate salt, read-out: Mean IC50", "value": 5.1, "unit": "µM"}]}
